Assay results published in patent US6693118B2, “Use of 4-substituted tetrahydropyridines for the manufacture of medicaments acting upon TGF-β1” (Sanofi-Synthelabo, priority 1997, dated 2004).

Experiments:
Assay type in all cases: cell-based
[1] = system: smooth muscle cells isolated from the human aorta; assay: Anti-apoptotic effect, apoptosis induced by NGF (oligonucleosome ELISA); conditions: NGF 0.01 ng/ml to 100 ng/ml; after 24 hours of contact with the cells
Method: (§1) The anti-apoptotic activity was measured on the same cells vis-à-vis the pro-apoptotic activity of a deprivation in serum or after the addition of toxic compounds such as vincristine or growth factors such as nerve growth factor (NGF) with the aid of a specific ELISA (enzyme-linked immunosorbent assay) determination kit which detects the presence of oligonucleosomes the presence of which inside the cells is a specific marker of programmed cell death (apoptosis), according to the method described by Del Bino G. et al., (Experimental Cell Research, 193, 27, 1991 and 195, 485, 1991) or Darzynkiewicz A et al., (Cytometry, 13, 795, 1992).
(§2) 40,000 smooth muscle cells isolated from the human aorta (supplier: CLONETICS) are placed, in a […], in a medium containing 2 ml of DMEM (Dulbecco Modified Eagle Medium containing 4.5 g/l of glucose, 3.7 g/l of NaHCO3 and not containing any L-glutamine or Na-pyruvate). 20% v/v of foetal calf serum which was desupplemented for 30 min at […] , 4 mM L-glutamine, 50 U/ml of penicillin and 50 μg/ml of streptomycin are added. The cells are left in this medium for a growth period of three days before submitting them to tests according to the examples given further on.
(§3) Dishes containing the cells are prepared as in PREPARATION 1. Apoptosis is induced by three different methods:
b) by adding increasing doses of NGF (0.01 ng/ml to 100 ng/ml) to the medium described in PREPARATION 1;
(§4) By an ELISA determination test of the mono- and oligo-nucleosomes associated with cytoplasmic histones after washing and cellular lysis, the effects of the compounds of the invention upon the apoptosis are measured after 24 hours of contact with the cells in comparison with the levels of apoptosis obtained in the absence of products (maximum apoptosis level) or in the presence of 20% foetal calf serum (minimum apoptosis level).
Dishes containing cells are prepared as in PREPARATION 1. Apoptosis is induced according to method b) of PREPARATION 4. The apoptosis levels are measured after 24 hours of contact with the cells by the method described in PREPARATION 4; the same controls as in PREPARATION 4 are used.

[2] = system: smooth muscle cells isolated from the human aorta; assay: Anti-apoptotic effect, apoptosis induced by vincristine (oligonucleosome ELISA); conditions: Vincristin 0.1 pg/ml to 10 ng/ml; after 24 hours of contact with the cells
Method: as §1, §2, §3
c) by adding increasing doses of Vincristin (0.1 pg/ml to 10 ng/ml) to the medium described in PREPARATION 1.
as §4
Dishes containing cells are prepared as described in PREPARATION 1. Apoptosis is induced according to method c) of PREPARATION 4. The levels of apoptosis are measured after 24 hours of contact with the cells by the method described in PREPARATION 4; the same controls as in PREPARATION 4 are used.

TGF-β1 = assay: Levels of latent and activated TGF-β1 in extracellular media of smooth muscle cell cultures (ELISA); conditions: human aortic smooth muscle cells, 0.2% foetal calf serum; after 14 hours of contact with the cells
Method: The effect of the compounds of formula (I) upon the increase of the levels of TGF-β1 was evaluated with the aid of tests upon the smooth muscle cells, as well as upon the blood levels and the diaphragms in the rat after administration of the representative compounds of the invention.
Both latent TGF-β1 and activated TGF-β1 were determined on the smooth muscle cells by incubation with hydrochloric acid.
40,000 smooth muscle cells isolated from the human aorta (supplier: CLONETICS) are placed, in a […], in a medium containing 2 ml of DMEM (Dulbecco Modified Eagle Medium containing 4.5 g/l of glucose, 3.7 g/l of NaHCO3 and not containing any L-glutamine or Na-pyruvate). […]
Dishes containing cells are prepared as described in Preparation 1. […] The activated TGF-β1 is determined directly in the supernatants of the culture, but the latent TGF-β1 is determined after activation. […]
Dishes containing cells are prepared as in PREPARATION 1. The levels of TGF-β1 are measured as described in PREPARATION 2. The levels of activated TGF-β1 are measured in the extracellular media in the presence of SR 57746A after 1, 3, 14, 24 and 48 hours and 7 days of contact with the cells, in comparison with the controls (0.2% foetal calf serum and 20% foetal calf serum) by the method described in PREPARATION 2.

| Structure (SMILES) | pro-apoptotic effect of NGF [1] | pro-apoptotic effect of vincristine [2] | levels of activated TGF-β1 in the extracellular media (TGF-β1) |
| --- | --- | --- | --- |
| FC(F)(F)c1cccc(C2=CCN(CCc3ccc4cc5c(cc4c3)OCO5)CC2)c1 [compound D, 1-[2-(6,7-methylenedioxynaphth-2-yl)ethyl]-4-(3-trifluoromethylphenyl)-1,2,3,6-tetrahydropyridine] | significantly inhibit | significantly inhibit |  |
| FC(F)(F)c1cccc(C2=CCN(CCc3ccc(-c4ccccc4)cc3)CC2)c1 [compound C, 1-[2-(biphenyl-4-yl)ethyl]-4-(3-trifluoromethylphenyl)-1,2,3,6-tetrahydropyridine] | significantly inhibit | significantly inhibit |  |
| FC(F)(F)c1ccccc1C1=CCN(CCc2ccc(-c3ccccc3)cc2)CC1 [compound F, 1-[2-(biphenyl-4-yl)ethyl]-4-(2-trifluoromethylphenyl)-1,2,3,6-tetrahydropyridine] | significantly inhibit | significantly inhibit |  |
| FC(F)(F)c1cccc(C2=CCN(CCc3ccc4ccccc4c3)CC2)c1 [SR 57746, 1-(2-naphth-2-ylethyl)-4-(3-trifluoromethylphenyl)-1,2,3,6-tetrahydropyridine] | significantly inhibit | significantly inhibit | significant increase |
| CCc1ccc(CCN2CC=C(c3cccc(C(F)(F)F)c3)CC2)cc1CC [compound A, 1-[2-(3,4-diethylphenyl)ethyl]-4-(3-trifluoromethylphenyl)-1,2,3,6-tetrahydropyridine] | significantly inhibit | significantly inhibit |  |
| FC(F)(F)c1cccc(C2=CCN(CCc3ccc(C4=CCCCC4)cc3)CC2)c1 [compound E, 1-[2-(4-cyclohexenylphenyl)ethyl]-4-(3-trifluoromethylphenyl)-1,2,3,6-tetrahydropyridine] | significantly inhibit | significantly inhibit |  |
| O=C(CN1CC=C(c2cccc(C(F)(F)F)c2)CC1)c1ccc(-c2ccccc2)cc1 [compound B, 1-[2-(biphenyl-4-yl)-2-oxoethyl]-4-(3-trifluoromethylphenyl)-1,2,3,6-tetrahydropyridine] | significantly inhibit | significantly inhibit |  |
